Patent US20260183320A1, “METHOD FOR TREATING CANCER BY COMBINING ALKYLATING AGENT PRODRUG AND CELL CYCLE INHIBITOR” (ASCENTAWITS PHARMACEUTICALS, LTD., priority 2022, published 2026)
“Also recorded” adds a separate entry of the source. Like-named read-outs stand apart in the source and are kept apart here.

Experiments:
[1] = system: p53-deficient (HT29) cell line; test: CTG cell proliferation assay, HT29 cell line; type: cell-based; details: for IC50: read-out: IC50
Procedure: (§1) Each CTG cell proliferation assay included the steps as follows: • 1) An H460 or HT29 cell suspension was added to a 96-well plate at 100 μL per well so that each well contained 2000 or 10000 cells. • 2) The cells were incubated overnight at 37° C. in an incubator with 5% CO2. • 3) Treatment with Compounds
(§2) Combination therapy: 1 μL of adavosertib (at four concentrations), AZD7762 (at four concentrations), palbociclib (at four concentrations) or ceralasertib (at three concentrations) was added to each well and shaken gently until homogeneous mixing.
(§3) 7) Chemiluminescence was read for 1000 ms on a multimode microplate reader. • 8) IC50 (half-maximal inhibitory concentration) values of the compounds were calculated using the GraphPad Prism 5 software. 1.

[2] = system: wild-type p53-expressing (H460) cell line; test: CTG cell proliferation assay, H460 cell line; type: cell-based; details: for IC50: Homo sapiens, read-out: IC50
Procedure: as §1, §2, §3

[3] = HT29 (p53-deficient), various concentrations, also low
[4] = H460 (wild-type p53), both drugs at low concentrations

- IC50 ([1]; HT29, monotherapy, 72 h): 73.4 nM
- IC50 ([1]; Homo sapiens, HT-29, 72 h, HT29, monotherapy, 72 h): 84.8 nM
- IC50 ([1]; Homo sapiens, HT-29, HT29, monotherapy, first assay): 129 nM
- IC50 ([1]; Homo sapiens, HT-29, HT29, monotherapy, order-of-addition assay): 88.6 nM
- IC50 ([1]; Homo sapiens, HT-29, HT29, monotherapy, second assay): 99 nM
- IC50 ([1]; Homo sapiens, HT-29, HT29, with 0.04 μM ceralasertib, first assay): 3.26 nM
- IC50 ([1]; Homo sapiens, HT-29, HT29, with 0.04 μM ceralasertib, second assay): 1.62 nM
- IC50 ([1]; Homo sapiens, HT-29, HT29, with 50 nM palbociclib (2 h pretreatment), 72 h): 62.5 nM
- IC50 ([1]; Homo sapiens, HT-29, HT29, with 100 nM AZD7762 (2 h pretreatment), 72 h): 1.29 nM
- IC50 ([1]; Homo sapiens, HT-29, HT29, with 100 nM adavosertib (2 h pretreatment), 72 h): 2.11 nM
- IC50 ([1]; Homo sapiens, HT-29, HT29, with 130 nM AZD7762 (2 h pretreatment), 72 h): 1.2 nM
- IC50 ([1]; Homo sapiens, HT-29, HT29, with 130 nM adavosertib (2 h pretreatment), 72 h): 1.52 nM
- IC50 ([1]; Homo sapiens, HT-29, HT29, with 160 nM AZD7762 (2 h pretreatment), 72 h): 1.18 nM
- IC50 ([1]; Homo sapiens, HT-29, HT29, with 160 nM adavosertib (2 h pretreatment), 72 h): 1.2 nM
- IC50 ([1]; Homo sapiens, HT-29, HT29, with 1000 nM palbociclib (2 h pretreatment), 72 h): 38.1 nM
- IC50 ([1]; Homo sapiens, HT-29, HT29, with 1.3 μM ceralasertib, first assay): 1.42 nM
- IC50 ([1]; Homo sapiens, HT-29, HT29, with 1.3 μM ceralasertib, second assay): 1.21 nM
- IC50 ([1]; Homo sapiens, HT-29, HT29, with 2 μM ceralasertib, first assay): 2.41 nM
- IC50 ([1]; Homo sapiens, HT-29, HT29, with 2 μM ceralasertib, second assay): 1.23 nM
- IC50 ([1]; Homo sapiens, HT-29, HT29, with 5000 nM palbociclib (2 h pretreatment), 72 h): 31.4 nM
- IC50 ([2]; NCI-H460, 72 h, H460, monotherapy, 72 h): 0.34 nM
- IC50 ([2]; NCI-H460, H460, monotherapy, first assay): 0.4 nM
- IC50 ([2]; NCI-H460, H460, monotherapy, second assay): 0.24 nM
- IC50 ([2]; NCI-H460, H460, with 0.05 nM palbociclib (2 h pretreatment), 72 h): 0.38 nM
- IC50 ([2]; NCI-H460, H460, with 0.5 nM AZD7762 (2 h pretreatment), 72 h): 0.33 nM
- IC50 ([2]; NCI-H460, H460, with 0.5 nM adavosertib (2 h pretreatment), 72 h): 0.31 nM
- IC50 ([2]; NCI-H460, H460, with 0.64 nM palbociclib (2 h pretreatment), 72 h): 0.38 nM
- IC50 ([2]; NCI-H460, H460, with 6.4 nM AZD7762 (2 h pretreatment), 72 h): 0.47 nM
- IC50 ([2]; NCI-H460, H460, with 6.4 nM adavosertib (2 h pretreatment), 72 h): 0.27 nM
- IC50 ([2]; NCI-H460, H460, with 0.15 μM ceralasertib, first assay): 0.06 nM
- IC50 ([2]; NCI-H460, H460, with 0.15 μM ceralasertib, second assay): 0.06 nM
- IC50 ([2]; NCI-H460, H460, with 160 nM AZD7762 (2 h pretreatment), 72 h): 0.16 nM
- IC50 ([2]; NCI-H460, H460, with 160 nM adavosertib (2 h pretreatment), 72 h): 0.19 nM
- IC50 ([2]; NCI-H460, H460, with 400 nM palbociclib (2 h pretreatment), 72 h): 0.42 nM
- IC50 ([2]; NCI-H460, H460, with 0.44 μM ceralasertib, first assay): 0.02 nM
- IC50 ([2]; NCI-H460, H460, with 0.44 μM ceralasertib, second assay): 0.01 nM
- IC50 ([2]; NCI-H460, H460, with 800 nM adavosertib (2 h pretreatment), 72 h): 0.15 nM
- IC50 ([2]; NCI-H460, H460, with 1.3 μM ceralasertib, first assay): 0.03 nM
- IC50 ([2]; NCI-H460, H460, with 1.3 μM ceralasertib, second assay): 0.02 nM
Compound: C[C@H](OP(=O)(N1CC1)N1CC1)c1ccc([N+](=O)[O-])c(Oc2cccc(C(=O)N(C)C)c2)c1 [AST-3424, (S)-1-(3-(3-N,N-dimethylaminocarbonyl)phenoxyl-4-nitrophenyl)-1-ethyl-N,N′-bis(ethylene)phosphoramidate]
- additive cytotoxic effect in combination therapy with ceralasertib ([1]; HT29 (p53-deficient), various concentrations): very significant additive effects; also recorded: significant additive cytotoxic effects
- additive cytotoxic effect in combination therapy with AZD7762 [1, 3]: significant additive cytotoxic effects
- additive cytotoxic effect in combination therapy with adavosertib [1, 3]: significant additive cytotoxic effects
- additive cytotoxic effect in combination therapy with palbociclib [1, 3]: significant additive cytotoxic effects
- Ratio single/combo ([1]; HT29, 0.44 μM ceralasertib 2 h-pretreatment + AST-3424-72 h-cotreatment): 37.56
- Ratio single/combo ([1]; HT29, 0.44 μM ceralasertib + AST-3424 72 h, simultaneously): 51.53
- Ratio single/combo ([1]; HT29, AST-3424-2 h-pretreatment + 0.44 μM ceralasertib-72 h-cotreatment): 52.44
- Ratio single/combo ([1]; HT29, IC50 monotherapy / IC50 with 50 nM palbociclib): 1.17
- Ratio single/combo ([1]; HT29, IC50 monotherapy / IC50 with 100 nM AZD7762): 65.70
- Ratio single/combo ([1]; HT29, IC50 monotherapy / IC50 with 100 nM adavosertib): 40.17
- Ratio single/combo ([1]; HT29, IC50 monotherapy / IC50 with 130 nM AZD7762): 70.63
- Ratio single/combo ([1]; HT29, IC50 monotherapy / IC50 with 130 nM adavosertib): 55.39
- Ratio single/combo ([1]; HT29, IC50 monotherapy / IC50 with 160 nM AZD7762): 71.82
- Ratio single/combo ([1]; HT29, IC50 monotherapy / IC50 with 160 nM adavosertib): 70.63
- Ratio single/combo ([1]; HT29, IC50 monotherapy / IC50 with 1000 nM palbociclib): 1.92
- Ratio single/combo ([1]; HT29, IC50 monotherapy / IC50 with 5000 nM palbociclib): 2.34
- influence of the order of adding drugs on additive cytotoxic effect with ceralasertib ([1]; HT29, different orders of adding AST-3424 and 0.44 μM ceralasertib): did not show any differences
- IC50 ([1]; Homo sapiens, HT-29, 72 h, HT29, 0.44 μM ceralasertib + AST-3424 72 h, simultaneously): 1.72 nM
- IC50 ([1]; Homo sapiens, HT-29, HT29, 0.44 μM ceralasertib 2 h-pretreatment + AST-3424-72 h-cotreatment): 2.36 nM
- IC50 ([1]; Homo sapiens, HT-29, HT29, AST-3424-2 h-pretreatment + 0.44 μM ceralasertib-72 h-cotreatment): 1.69 nM
- additive cytotoxic effect in combination therapy with ceralasertib ([2]; H460 (wild-type p53)): significant additive cytotoxic effect
- additive cytotoxic effect in combination therapy with palbociclib ([2]; H460 (wild-type p53), all concentrations): did not exhibit any significant additive cytotoxic effects
- additive cytotoxic effect in combination therapy with AZD7762 [2, 4]: not significant
- additive cytotoxic effect in combination therapy with adavosertib [2, 4]: not significant
- additive cytotoxic effect in combination therapy with ceralasertib [2, 4]: not significant
- additive cytotoxic effect in combination therapy with AZD7762 ([2]; H460 (wild-type p53), medium and high concentrations): certain additive cytotoxic effects
- additive cytotoxic effect in combination therapy with ceralasertib ([2]; H460 (wild-type p53), medium or high concentration): certain additive cytotoxic effects
- additive cytotoxic effect in combination therapy with adavosertib ([2]; H460 (wild-type p53), medium or high concentrations): certain additive cytotoxic effects
- Ratio combo/single ([2]; H460, 0.15 μM ceralasertib, first assay): 6.67
- Ratio combo/single ([2]; H460, 0.15 μM ceralasertib, second assay): 4.00
- Ratio combo/single ([2]; H460, 0.44 μM ceralasertib, first assay): 20.00
- Ratio combo/single ([2]; H460, 0.44 μM ceralasertib, second assay): 24.00
- Ratio combo/single ([2]; H460, 1.3 μM ceralasertib, first assay): 13.33
- Ratio combo/single ([2]; H460, 1.3 μM ceralasertib, second assay): 12.00
- Ratio single/combo ([2]; H460, IC50 monotherapy / IC50 with 0.5 nM AZD7762): 1.03
- Ratio single/combo ([2]; H460, IC50 monotherapy / IC50 with 0.5 nM adavosertib): 1.10
- Ratio single/combo ([2]; H460, IC50 monotherapy / IC50 with 6.4 nM AZD7762): 0.73
- Ratio single/combo ([2]; H460, IC50 monotherapy / IC50 with 6.4 nM adavosertib): 1.26
- Ratio single/combo ([2]; H460, IC50 monotherapy / IC50 with 160 nM AZD7762): 2.13
- Ratio single/combo ([2]; H460, IC50 monotherapy / IC50 with 160 nM adavosertib): 1.79
- Ratio single/combo ([2]; H460, IC50 monotherapy / IC50 with 800 nM adavosertib): 2.27
- Ratio combo/single ([2]; H460, IC50 with 0.05 nM palbociclib / IC50 monotherapy): 1.12
- Ratio combo/single ([2]; H460, IC50 with 0.64 nM palbociclib / IC50 monotherapy): 1.12
- Ratio combo/single ([2]; H460, IC50 with 400 nM palbociclib / IC50 monotherapy): 1.24
